Source: patent US20260272936A1, “TREATMENT OF CANCER WITH A PARG INHIBITOR” (858 Therapeutics, Inc., priority 2023, published 2026)

What was measured:
Assay in all cases: MMS-induced nuclear PAR accumulation, immunofluorescence imaging
Type in all cases: cell-based
HeLa cells = conditions: Homo sapiens, 50 μg/mL MMS, n=26, read-out: Geometric Mean EC50, PAR accumulation
Experimental: (§1) The HeLa (Cat #CCL-2) and OVCAR-3 (Cat #HTB-161) human cancer cell lines were obtained from ATCC (Manassas, Virginia, USA) and the RMUG-S(Cat #IFO50320) and Kuramochi (Cat #JCRB0098) cell lines were obtained from the National Institutes of Biomedical Innovation, Health and Nutrition's Japanese Collection of Research Bioresources (Ibaraki City, Osaka, Japan).
(§2) All cell lines were grown in an incubator at 37° C. in 5% CO2. HeLa cells were cultured in Dulbecco's Modified Medium (DMEM)+glutaMAX™ (Thermo Fisher Scientific, Waltham, MA, USA Cat #10566-016) containing 1% penicillin/streptomycin (pen/strep) (Thermo Fisher Scientific Cat #15070-063), and 10% fetal bovine serum (FBS) (Thermo Fisher Scientific Cat #A31605-02). Kuramochi cells were cultured in RPMI medium+glutaMAX™ (Thermo Fisher Scientific Cat #72400-047), 10% FBS, and 1% pen/strep. RMUG-S cells were cultured in Ham's F12 medium+glutaMAX™ (Thermo Fisher Scientific Cat #31765-035) containing 10% FBS, and 1% pen/strep. OVCAR-3 cells were cultured in RPMI medium+glutaMAX™ containing 20% FBS, 1% pen/strep, and 0.01 mg/mL bovine insulin (MilliporeSigma, Burlington, MA, USA Cat #10516-5ML).
(§3) Compound 1 EC50 values for accumulation of PAR chains were determined using an immunofluorescence high-content imaging assay of PAR staining. Cells were harvested with trypsin (Thermo Fisher Scientific, Cat #25200-056) and plated in black-walled, clear bottom 96-well Corning Costar 3603 plates (VWR, Radnor, PA, USA Cat #29444-008) at 15,000 cells/well in 100 μL normal growth media. The cells were incubated overnight at 37° C., 5% CO2. The following day, a 1000× Compound 1 concentration curve was prepared by serial dilution of Compound 1 in 100% DMSO for twelve concentrations with the highest starting final concentration of 10 μM. The 1000× test compound curve was diluted 1:200 into growth media to prepare a 5× concentration curve in 0.5% DMSO/media before addition of 25 μL of compound or 0.5% DMSO/media alone to each well of the plate. The plate was mixed gently on a plate shaker and then preincubated at 37° C., 5% CO2 for 1 hour. A 2.25× stock of MMS (Sigma Cat #129925-5G) plus Compound 1 in media was prepared by diluting a 100 mg/mL stock of MMS prepared in 100% DMSO into growth media containing 1× Compound 1 compound. […] Nuclear PAR accumulation was evaluated by imaging the plates on an ImageXpress Pico automated cell imaging system (Molecular Devices, San Jose, CA, USA).
(§4) Four fields for each well were acquired at 20× magnification resulting in at least 1,000 cells analyzed per well. Percent PAR positive cells were calculated using CellReporterXpress software (Molecular Devices, San Jose, CA, USA) using nuclei detection by DAPI image segmentation then setting a fluorescence intensity threshold for PAR. […]

Kuramochi cells = conditions: Homo sapiens, 50 μg/mL MMS, n=3, read-out: Geometric Mean EC50, PAR accumulation
Experimental: as §1, §2, §3, §4

OVCAR-3 cells = conditions: Homo sapiens; OVCAR-3, 50 μg/mL MMS, n=3; read-out: Geometric Mean EC50, PAR accumulation
Experimental: as §1, §2, §3, §4

RMUG-S cells = conditions: Homo sapiens, 50 μg/mL MMS, n=3, read-out: Geometric Mean EC50, PAR accumulation
Experimental: as §1, §2, §3, §4

Structure (SMILES): [2H]C([2H])(c1cnn(C)c1)N1C(=O)c2cc(S(=O)(=O)NC3(C)CC3)ccc2N2C1=NC[C@H]2C [Compound 1, (R)-1-methyl-4-((1-methyl-1H-pyrazol-4-yl)methyl-d2)-N-(1-methylcyclopropyl)-5-oxo-1,2,4,5-tetrahydroimidazo[1,2-a]quinazoline-7-sulfonamide]
- EC50 (HeLa cells): 14 nM
- EC50 (Kuramochi cells): 9 nM
- EC50 (OVCAR-3 cells): 20 nM
- EC50 (RMUG-S cells): 38 nM
